Here are results for 1 molecule from article PMC7154863, “The First Case of Glyphosate Resistance in Johnsongrass (Sorghum halepense (L.) Pers.) in Europe” (Plants, 2020).

The experiment has as its system T1, 5-enolpyruvylshikimate-3-phosphate synthase (EPSPS).
T1 construct: native enzyme in leaf extract, not purified to homogeneity; partial EPSPS2 cDNA (543-bp fragment) without Pro106 or Thr102 substitution
In words: EnzCheck phosphate release assay, leaf extract, log-logistic fit. The format is biochemical, Sorghum halepense. As to conditions: range of estimates over seven populations without significant differences: 2.6 (GR6), 3.4 (GR1); the others only in the figure; glyphosate 0-1000 µM; 360 nm, 10 min; read-out: I50.

Regarding `O=C(O)CNCP(=O)(O)O` [glyphosate], the IC50 is 2600 to 3400 nM.
